These results are taken from PubChem BioAssay (NCI).

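Dose response: 5 concentrations. Exposure: 48 h. Format: 96-well plates. Endpoint: linear interpolation; highest concentration if not reached. GI50 marks 50% less growth. TGI denotes the concentration required for complete inhibition of growth.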

Some test systems named below: SK-MEL-2 melanoma; SN12C renal; UACC-62 melanoma; SW-620 colon; HCT-116 colon; IGROV1 ovarian; KM12 colon; MCF7 breast; HCT-15 colon; A498 renal.
Holding throughout (assay): NCI tumour cell line growth inhibition, 48 h

As for `Cn1cc(C2=C(c3c4n(c5ccccc35)CCC(CN)C4)C(=O)NC2=O)c2ccccc21` (stereo not given), the GI50 in the assay with SK-MEL-2 melanoma is 4.15 µM; in the assay on SN12C renal, 2.72 µM; with UACC-62 melanoma, 3 µM; with SW-620 colon, 2.96 µM; in the assay with HCT-116 colon, 2 µM; with IGROV1 ovarian, 4 µM. Also, the GI50 with KM12 colon is 3.42 µM; in the assay on MCF7 breast, 2.06 µM; with HCT-15 colon it was 4.02 µM; in the assay with A498 renal, 4.02 µM. Also, the TGI in the assay with SK-MEL-2 melanoma was 7.92 µM; with SN12C renal, 6.56 µM; in the assay with UACC-62 melanoma, 6.21 µM; in the assay with SW-620 colon it was 6.69 µM; in the assay with HCT-116 colon, 5.77 µM; with IGROV1 ovarian, 8 µM. Besides, the TGI came out at 6.92 µM in the assay on KM12 colon, 6.5 µM in the assay with MCF7 breast, 8.65 µM with HCT-15 colon and 7.6 µM in the assay with A498 renal.
Turning to `COc1cc2ncnc(Nc3cccc(Cl)c3F)c2cc1OC(=O)N1CCN(C)C[C@H]1C`, the GI50 is more than 43.6 µM in the assay with SK-MEL-2 melanoma; 40.5 µM with SN12C renal; more than 40.7 µM in the assay with UACC-62 melanoma; more than 44.9 µM in the assay with SW-620 colon; more than 38.5 µM in the assay on HCT-116 colon; 0.888 µM in the assay on IGROV1 ovarian. Also, the GI50 with KM12 colon is more than 50.5 µM; in the assay with MCF7 breast it was more than 39 µM; in the assay with HCT-15 colon, more than 41.4 µM; in the assay on A498 renal, 3.44 µM. Moreover, the TGI was more than 61.1 µM in the assay with SK-MEL-2 melanoma; more than 100 µM with SN12C renal; more than 65.5 µM in the assay on UACC-62 melanoma; more than 69.7 µM in the assay with SW-620 colon; more than 56.9 µM in the assay with HCT-116 colon; more than 63.9 µM with IGROV1 ovarian. Besides, the TGI is more than 88.5 µM with KM12 colon, more than 77.3 µM in the assay on MCF7 breast, more than 88.8 µM in the assay with HCT-15 colon and more than 45.1 µM in the assay on A498 renal.
For `c1ccc2cc(NCNc3ccc4ccccc4c3)ccc2c1`, the TGI in the assay on SK-MEL-2 melanoma is 32.1 µM; with SN12C renal it was 25.8 µM; with UACC-62 melanoma, 30.7 µM; in the assay on SW-620 colon it was more than 100 µM; in the assay on HCT-116 colon it was 43.4 µM; in the assay on IGROV1 ovarian, 35 µM. For the same compound, the TGI in the assay on KM12 colon was 38.7 µM; in the assay with MCF7 breast, 25.6 µM; in the assay with HCT-15 colon it was 46.4 µM; with A498 renal it was 45.6 µM.
Turning to `COc1cc(C(=O)N2CCN(c3ccccc3)CC2)c2ccccc2n1`, the GI50 is 0.432 µM in the assay on SK-MEL-2 melanoma; 0.485 µM in the assay on SN12C renal; 0.0482 µM in the assay on UACC-62 melanoma; 0.0526 µM with SW-620 colon; 0.055 µM in the assay with HCT-116 colon; 0.0965 µM with IGROV1 ovarian. In addition, the GI50 in the assay on KM12 colon is 0.0412 µM; in the assay on MCF7 breast it was 0.0386 µM; with HCT-15 colon it was 0.149 µM; in the assay with A498 renal, 0.0226 µM. Further, the TGI is more than 100 µM in the assay with SK-MEL-2 melanoma; more than 100 µM in the assay on SN12C renal; more than 100 µM with UACC-62 melanoma; more than 100 µM in the assay with SW-620 colon; 28.1 µM in the assay on HCT-116 colon; more than 100 µM with IGROV1 ovarian. Further, the TGI with KM12 colon was 5.19 µM; with MCF7 breast, more than 100 µM; with HCT-15 colon, more than 100 µM; in the assay on A498 renal it was 0.357 µM.
`COc1cc(/C(=C2/O[C@@H]([C@H]3COC(C)(C)O3)[C@H]3OC(C)(C)O[C@@H]23)c2ccc3ccccc3c2)cc(OC)c1OC`: the GI50 in the assay with SK-MEL-2 melanoma was 1.53 µM; with SN12C renal it was 3.65 µM; in the assay with UACC-62 melanoma, 7.13 µM; in the assay with SW-620 colon it was 4.31 µM; with HCT-116 colon, 2.51 µM; with IGROV1 ovarian, 3.3 µM. Further, the GI50 is 6 µM with KM12 colon, 3.59 µM in the assay with MCF7 breast, 76.8 µM in the assay on HCT-15 colon and 17.8 µM in the assay with A498 renal. For the same compound, the TGI was 4.12 µM with SK-MEL-2 melanoma; more than 100 µM in the assay on SN12C renal; more than 100 µM with UACC-62 melanoma; more than 100 µM in the assay with SW-620 colon; 5.7 µM with HCT-116 colon; 10.9 µM with IGROV1 ovarian. The TGI is more than 100 µM with KM12 colon, 14.4 µM in the assay on MCF7 breast, more than 100 µM with HCT-15 colon and 74.6 µM with A498 renal.
`CC1(C)CC[C@]2(C(=O)O)CC[C@]3(C)C(=CC[C@@H]4[C@@]5(C)C[C@H](O)[C@H](O)[C@@](C)(C(=O)O)[C@@H]5CC[C@]43C)[C@@H]2C1`: the TGI with SK-MEL-2 melanoma was more than 100 µM; in the assay on SN12C renal it was more than 100 µM; in the assay with UACC-62 melanoma it was more than 94.2 µM; with SW-620 colon, more than 100 µM; in the assay with HCT-116 colon it was more than 100 µM; with IGROV1 ovarian, more than 100 µM. Moreover, the TGI in the assay with KM12 colon, in the assay with MCF7 breast, with HCT-15 colon and in the assay on A498 renal was more than 100 µM in each case.
As for `C=C1C(=O)O[C@H]2C[C@@H]1CC/C(C)=C/CC/C(C)=C/CC[C@@]2(C)O`, the GI50 is 46.7 µM in the assay on SK-MEL-2 melanoma; 24.9 µM in the assay with SN12C renal; 44.1 µM with UACC-62 melanoma; 35 µM with SW-620 colon; 17.6 µM in the assay on HCT-116 colon; 23.1 µM in the assay on IGROV1 ovarian. In addition, the GI50 is more than 100 µM in the assay with KM12 colon, 37.3 µM with MCF7 breast, 26.4 µM with HCT-15 colon and 43.8 µM in the assay with A498 renal. The TGI with SK-MEL-2 melanoma was more than 100 µM; in the assay with SN12C renal, 65.7 µM; in the assay with UACC-62 melanoma it was more than 100 µM; in the assay on SW-620 colon it was more than 100 µM; with HCT-116 colon it was 32.8 µM; in the assay with IGROV1 ovarian, 74.2 µM. The TGI with KM12 colon is more than 100 µM; in the assay on MCF7 breast, more than 100 µM; with HCT-15 colon it was 71.6 µM; in the assay with A498 renal, more than 100 µM.
On to `O=[N+]([O-])c1ccc(C2=Nn3c(nnc3-c3ccc(Cl)cc3)SC2)o1`, for which the TGI turned out to be 27.1 µM in the assay with SK-MEL-2 melanoma; 23.1 µM in the assay with SN12C renal; 25.9 µM in the assay with UACC-62 melanoma; 5.85 µM in the assay with SW-620 colon; 15.1 µM with HCT-116 colon; 17.1 µM in the assay with IGROV1 ovarian. For the same compound, the TGI came out at 27.6 µM in the assay on KM12 colon, 4.05 µM with MCF7 breast, 5.99 µM in the assay on HCT-15 colon and 31.3 µM with A498 renal.
